Legend:
Candida albicans = settings: U.S. Pat. No. 9,295,626, table 2; cited from earlier work
[1] = system: Corynobacterium xerosis strain; assay: Example 3: microbial population count over 28 days after contamination (microtiter method, TTC); assay type: cell-based, Corynebacterium xerosis; settings: for Number of colony forming strains after: 24 h / Number of colony forming strains after: 7 days / Number of colony forming strains after: 14 days / Number of colony forming strains after: 21 days / Number of colony forming strains after: 28 days: 22° C.
Experimental: (§1) The samples are prepared under sterile conditions and deposited in microplates (2-ml wells) with the concentrations hereunder. Two analysis controls were produced: a positive control corresponding to 0.5% Phenonip®; a negative control consisting of 0.85% physiological saline solution. Samples and controls are contaminated by three bacterial strains, Staphylococcus epidermidis, Corynebacterium xerosis and Propionobacterium acnes, with around 1.43×10^5 to 4.15×10^5 colony forming units per milliliter, denoted cfu/ml. After contamination, the samples are carefully mixed by suction-discharge cycles in order to ensure a uniform distribution of the microorganism. The whole is incubated at 22° C. during 28 days. The microbial population is sampled and counted at 24 hours, 7, 14, 21 and 28 days for each bacterial strain. The contaminated samples are collected and then deposited in serial dilutions in microtiter plates, in the presence of culture medium, which is a saline solution with 0.85% sodium chloride, and a dehydrogenase activity indicator reagent, which is 2,3,5-triphenyltetrazolium chloride (denoted TTC). The results are presented in the following pages with the variation of the microbial population over the 28 days of study, for the tested microbial strain. The measurements of microbial populations in the samples collected at each time, are carried out according to the following microtiter method, for one sample collection. In the 96 wells with a volume of 250 μL of a microtiter plate, 20 μL of the collected sample are diluted by a factor of 10 by dispersion in 180 μL of Letheen broth (Difco, ref. 268110) containing 1.5% of Tween 80 (Sigma, ref. […]) and TTC (Sigma, ref. […]). The microplate is incubated for 48 hours at 32.5° C., and the growth of the microorganisms is monitored by the color change, from colorless to red/pink. The highest reciprocal dilution indicating a growth makes it possible to determine the log number of each microorganism at each time. The measurements of microbial populations taken at each collection time are expressed as colony forming units/ml.

[2] = system: Propionobacterium acnes strain; assay: as above; assay type: cell-based; settings: for Number of colony forming strains after: 24 h / Number of colony forming strains after: 7 days / Number of colony forming strains after: 14 days / Number of colony forming strains after: 21 days / Number of colony forming strains after: 28 days: 22° C.
Experimental: as §1

[3] = system: Staphylococcus epidermidis strain; assay: as above; assay type: cell-based; settings: for Number of colony forming strains after: 24 h / Number of colony forming strains after: 7 days / Number of colony forming strains after: 14 days / Number of colony forming strains after: 21 days / Number of colony forming strains after: 28 days: 22° C.
Experimental: as §1

Aspergillus brasiliensis = settings: U.S. Pat. No. 9,295,626, table 2; cited from earlier work
[4] = after 24 hours, for the three doses tested

O[C@@H]1CO[C@H]2[C@@H]1OC[C@@H]2O [isosorbide, 1,4-3,6-dianhydrosorbitol]
minimum inhibitory concentration (Candida albicans): 10%
bactericidal effect (conclusion in words) [1]: moderate bactericide
reduction of the number of colony forming strains [1, 4]: at least 3 log 10
colony forming strain observed ([1]; after 7 days): not any more colony forming strain
Number of colony forming strains after: 24 h ([1]; dose 1%): 4 × 10^2 colony forming units/ml
Number of colony forming strains after: 7 days ([1]; dose 1%): 0 colony forming units/ml
Number of colony forming strains after: 14 days ([1]; dose 1%): 0 colony forming units/ml
Number of colony forming strains after: 21 days ([1]; dose 1%): 0 colony forming units/ml
Number of colony forming strains after: 28 days ([1]; dose 1%): 0 colony forming units/ml
Number of colony forming strains after: 24 h ([1]; dose 5%): 1 × 10^2 colony forming units/ml
Number of colony forming strains after: 7 days ([1]; dose 5%): 0 colony forming units/ml
Number of colony forming strains after: 14 days ([1]; dose 5%): 0 colony forming units/ml
Number of colony forming strains after: 21 days ([1]; dose 5%): 0 colony forming units/ml
Number of colony forming strains after: 28 days ([1]; dose 5%): 0 colony forming units/ml
Number of colony forming strains after: 24 h ([1]; dose 9%): 3.7 × 10^2 colony forming units/ml
Number of colony forming strains after: 7 days ([1]; dose 9%): 0 colony forming units/ml
Number of colony forming strains after: 14 days ([1]; dose 9%): 0 colony forming units/ml
Number of colony forming strains after: 21 days ([1]; dose 9%): 0 colony forming units/ml
Number of colony forming strains after: 28 days ([1]; dose 9%): 0 colony forming units/ml
bactericidal effect (conclusion in words) ([2]; Example 3): bactericide
colony forming strain observed ([2]; after 24 hours, Example 3): no colony forming strain is observed
Number of colony forming strains after: 24 h ([2]; dose 1%): 0 colony forming units/ml
Number of colony forming strains after: 7 days ([2]; dose 1%): 0 colony forming units/ml
Number of colony forming strains after: 14 days ([2]; dose 1%): 0 colony forming units/ml
Number of colony forming strains after: 21 days ([2]; dose 1%): 0 colony forming units/ml
Number of colony forming strains after: 28 days ([2]; dose 1%): 0 colony forming units/ml
Number of colony forming strains after: 24 h ([2]; dose 5%): 0 colony forming units/ml
Number of colony forming strains after: 7 days ([2]; dose 5%): 0 colony forming units/ml
Number of colony forming strains after: 14 days ([2]; dose 5%): 0 colony forming units/ml
Number of colony forming strains after: 21 days ([2]; dose 5%): 0 colony forming units/ml
Number of colony forming strains after: 28 days ([2]; dose 5%): 0 colony forming units/ml
Number of colony forming strains after: 24 h ([2]; dose 9%): 0 colony forming units/ml
Number of colony forming strains after: 7 days ([2]; dose 9%): 0 colony forming units/ml
Number of colony forming strains after: 14 days ([2]; dose 9%): 0 colony forming units/ml
Number of colony forming strains after: 21 days ([2]; dose 9%): 0 colony forming units/ml
Number of colony forming strains after: 28 days ([2]; dose 9%): 0 colony forming units/ml
bactericidal effect (conclusion in words) [3]: weak bactericide
reduction of the number of colony forming strains [3, 4]: at least 2 log 10
colony forming strain observed ([3]; after 7 days): not any colony forming strain
Number of colony forming strains after: 24 h ([3]; dose 1%): 4 × 10^3 colony forming units/ml
Number of colony forming strains after: 7 days ([3]; dose 1%): 0 colony forming units/ml
Number of colony forming strains after: 14 days ([3]; dose 1%): 0 colony forming units/ml
Number of colony forming strains after: 21 days ([3]; dose 1%): 0 colony forming units/ml
Number of colony forming strains after: 28 days ([3]; dose 1%): 0 colony forming units/ml
Number of colony forming strains after: 24 h ([3]; dose 5%): 1 × 10^3 colony forming units/ml
Number of colony forming strains after: 7 days ([3]; dose 5%): 0 colony forming units/ml
Number of colony forming strains after: 14 days ([3]; dose 5%): 0 colony forming units/ml
Number of colony forming strains after: 21 days ([3]; dose 5%): 0 colony forming units/ml
Number of colony forming strains after: 28 days ([3]; dose 5%): 0 colony forming units/ml
Number of colony forming strains after: 24 h ([3]; dose 9%): 7 × 10^2 colony forming units/ml
Number of colony forming strains after: 7 days ([3]; dose 9%): 0 colony forming units/ml
Number of colony forming strains after: 14 days ([3]; dose 9%): 0 colony forming units/ml
Number of colony forming strains after: 21 days ([3]; dose 9%): 0 colony forming units/ml
Number of colony forming strains after: 28 days ([3]; dose 9%): 0 colony forming units/ml
minimum inhibitory concentration (Aspergillus brasiliensis): 10%

From patent US20220193025A1, “USE OF DIANHYDROHEXITOL TO ELIMINATE THE COSMETIC EFFECTS OF ACNE, DANDRUFF AND BAD ODORS” (ROQUETTE FRERES, priority 2019, published 2022)
